According to patent US20260216345A1, “M6PR BINDING COMPOUNDS AND CONJUGATES” (Lycia Therapeutics, Inc., priority 2023, published 2026):
“Also recorded” adds a separate entry of the source.

Tests used:
CI-M6PR [1] = target: T1, CI-M6PR (Homo sapiens, UniProt P11717); experiment: Human CI-M6PR binding assay (ELISA); set-up: purchased R&D 6418-GR-050; conditions: for binding affinity to M6PR, rank among the conjugates tested: matuzumab conjugates (FIGS. 7A-7F), I-7 at d8 (DAR 8), I-11 at d4 (DAR 4)
Method: Nunc black solid bottom MaxiSorp plates were allowed to incubate overnight at 4° C. coated with 1 μg/mL of recombinant human CI-M6PR protein (R&D, 6418-GR-050) in 50 μL PBS. The next day, coating was decanted and plates were washed 3× with PBS. Wells were blocked with 350 μL of 3% BSA-PBS for 1 hour at room temperature. […] 50 μL of diluted conjugates were added to the plate and allowed to incubate at room temperature for 2 hours. After incubation, solutions in plate were decanted and washed with 350 μL of 0.05% PBS-Tween20 three times, drying the plate each wash on a clean paper towel. 50 μL of peroxidase AffiniPure Mouse Anti-Human IgG (Jackson Immuno, 209-035-088) diluted in 3% BSA-PBS to […] was added to the plate and allowed to incubate for 1 hour at room temperature in the dark. After incubation, solutions in plate were decanted and washed with 350 μL of 0.05% PBS-Tween20 3 times, drying the plate each wash on a clean paper towel. […] 50 μL of QuantaBlu solution was added to wells and allowed to incubate for 5-10 minutes at room temperature. After incubation, plates were read on a Perkin Elmer EnVision using photometric 340 and Umbelliferone 460 filter sets for excitation and emission, respectively. Data analysis and non-linear curve-fitting was performed using GraphPad Prism.
Target sequence in this assay (P11717 41-1365 limits assumed): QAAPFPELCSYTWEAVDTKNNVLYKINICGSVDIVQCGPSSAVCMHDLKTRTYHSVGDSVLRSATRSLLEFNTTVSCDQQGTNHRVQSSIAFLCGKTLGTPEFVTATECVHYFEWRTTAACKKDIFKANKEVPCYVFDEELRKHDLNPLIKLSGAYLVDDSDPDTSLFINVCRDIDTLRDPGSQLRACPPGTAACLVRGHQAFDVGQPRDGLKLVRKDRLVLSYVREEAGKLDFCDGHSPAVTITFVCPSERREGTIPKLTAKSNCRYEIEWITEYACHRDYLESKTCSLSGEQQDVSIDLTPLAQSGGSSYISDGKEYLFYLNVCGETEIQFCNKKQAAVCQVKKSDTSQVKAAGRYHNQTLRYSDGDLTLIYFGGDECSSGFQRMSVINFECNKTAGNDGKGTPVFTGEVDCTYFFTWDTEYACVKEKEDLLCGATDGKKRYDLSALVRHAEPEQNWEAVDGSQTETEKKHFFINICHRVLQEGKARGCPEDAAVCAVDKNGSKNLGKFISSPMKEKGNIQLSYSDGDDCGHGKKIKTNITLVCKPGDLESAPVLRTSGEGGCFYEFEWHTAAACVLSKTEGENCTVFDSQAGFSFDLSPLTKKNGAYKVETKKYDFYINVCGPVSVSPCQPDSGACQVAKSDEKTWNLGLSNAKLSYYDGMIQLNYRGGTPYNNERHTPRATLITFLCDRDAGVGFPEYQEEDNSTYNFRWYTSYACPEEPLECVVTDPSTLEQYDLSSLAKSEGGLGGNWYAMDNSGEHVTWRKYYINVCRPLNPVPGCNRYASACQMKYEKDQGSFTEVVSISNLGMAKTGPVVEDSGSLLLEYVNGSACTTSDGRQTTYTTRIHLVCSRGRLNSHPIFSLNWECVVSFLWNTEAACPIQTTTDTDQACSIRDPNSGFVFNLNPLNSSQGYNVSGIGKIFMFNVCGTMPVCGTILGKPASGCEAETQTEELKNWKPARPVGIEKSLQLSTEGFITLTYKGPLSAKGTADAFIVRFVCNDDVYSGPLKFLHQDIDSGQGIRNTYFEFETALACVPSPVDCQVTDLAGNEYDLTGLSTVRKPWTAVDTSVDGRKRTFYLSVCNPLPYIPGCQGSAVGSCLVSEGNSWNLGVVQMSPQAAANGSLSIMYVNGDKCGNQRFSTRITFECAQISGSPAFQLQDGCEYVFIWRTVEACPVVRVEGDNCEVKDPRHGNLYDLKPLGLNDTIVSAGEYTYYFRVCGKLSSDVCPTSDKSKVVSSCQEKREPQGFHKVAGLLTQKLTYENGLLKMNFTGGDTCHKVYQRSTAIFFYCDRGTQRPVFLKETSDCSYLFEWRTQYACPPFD

Jurkat cells [2] = experiment: Uptake of IgE-Alexa488 target protein in Jurkat cells; type: cell-based
Method: The omalizumab conjugates of Example 142 were bound to IgE-Alexa488 (prepared according to Example 144), as follows: equal molar ratios of omalizumab (anti-IgE) conjugate and IgE-Alexa488 were added in tissue culture media for 30 minutes at room temperature. The resulting anti-IgE conjugate:IgE antibody-Alexa488 compositions were added to Jurkat cells (100 k cells/50 ul per well, n=2), and Alexa488 fluorescence levels in the cells were measured at 1 hour by flow cytometry. As the fluorescently labelled target (IgE antibody) accumulates in cells, the fluorescence presents a way to measure total intracellular uptake by cells over time.

M6PR (Domains 1-9) = target: T2, M6PR (Domains 1-9) (Homo sapiens, UniProt P11717); experiment: General M6PR binding assay (fluorescence polarization); conditions: 100 nM M6PR, 1 nM probe, 2 hr incubation
T2 construct: with 100 nM M6PR (Domains 1-9, R&D Systems) and 1 nM probe; purchased R&D Systems
T2 sequence (P11717 41-1365 limits assumed): as above
Method: M6PR binding was measured in black 96-well plates using a fluorescence polarization assay. A fluorescent probe consisting of a reference M6Pn ligand linked to Cy5 was synthesized. Test compounds were resuspended in DMSO and 3-fold serial dilutions were made at 100× final concentrations. Binding reactions were conducted in 100 μl final volume in 20 mM HEPES (pH 7.5) 100 mM NaCl 0.015% o Tween-20 1% DMSO with 100 nM M6PR (Domains 1-9, R&D Systems) and 1 nM probe. Fluorescence polarization was measured using λex=620 nm, λem=688 nm on an Envision plate reader (Perkin Elmer) after 2 hr incubation time. Dose responses were conducted in duplicate and normalized to the response with DMSO (high) and 1 μM reference compound (low) on each plate. IC50 values were determined by fitting to 4-parameter curves in GraphPad Prism.

CI-M6PR [3] = target: T1, CI-M6PR; experiment: CI-M6PR SPR binding assay; conditions: omalizumab conjugates at DAR of about 4; relative to 529 and 552
Method: The CI-M6PR binding affinities of omalizumab (anti-IgE) conjugates of Table 19 were also assessed via SPR binding assay. […] At equivalent DAR (m) values, the koff rate of the omalizumab (anti-IgE) conjugates was 552>529>570.
Target sequence in this assay (P11717 41-2491): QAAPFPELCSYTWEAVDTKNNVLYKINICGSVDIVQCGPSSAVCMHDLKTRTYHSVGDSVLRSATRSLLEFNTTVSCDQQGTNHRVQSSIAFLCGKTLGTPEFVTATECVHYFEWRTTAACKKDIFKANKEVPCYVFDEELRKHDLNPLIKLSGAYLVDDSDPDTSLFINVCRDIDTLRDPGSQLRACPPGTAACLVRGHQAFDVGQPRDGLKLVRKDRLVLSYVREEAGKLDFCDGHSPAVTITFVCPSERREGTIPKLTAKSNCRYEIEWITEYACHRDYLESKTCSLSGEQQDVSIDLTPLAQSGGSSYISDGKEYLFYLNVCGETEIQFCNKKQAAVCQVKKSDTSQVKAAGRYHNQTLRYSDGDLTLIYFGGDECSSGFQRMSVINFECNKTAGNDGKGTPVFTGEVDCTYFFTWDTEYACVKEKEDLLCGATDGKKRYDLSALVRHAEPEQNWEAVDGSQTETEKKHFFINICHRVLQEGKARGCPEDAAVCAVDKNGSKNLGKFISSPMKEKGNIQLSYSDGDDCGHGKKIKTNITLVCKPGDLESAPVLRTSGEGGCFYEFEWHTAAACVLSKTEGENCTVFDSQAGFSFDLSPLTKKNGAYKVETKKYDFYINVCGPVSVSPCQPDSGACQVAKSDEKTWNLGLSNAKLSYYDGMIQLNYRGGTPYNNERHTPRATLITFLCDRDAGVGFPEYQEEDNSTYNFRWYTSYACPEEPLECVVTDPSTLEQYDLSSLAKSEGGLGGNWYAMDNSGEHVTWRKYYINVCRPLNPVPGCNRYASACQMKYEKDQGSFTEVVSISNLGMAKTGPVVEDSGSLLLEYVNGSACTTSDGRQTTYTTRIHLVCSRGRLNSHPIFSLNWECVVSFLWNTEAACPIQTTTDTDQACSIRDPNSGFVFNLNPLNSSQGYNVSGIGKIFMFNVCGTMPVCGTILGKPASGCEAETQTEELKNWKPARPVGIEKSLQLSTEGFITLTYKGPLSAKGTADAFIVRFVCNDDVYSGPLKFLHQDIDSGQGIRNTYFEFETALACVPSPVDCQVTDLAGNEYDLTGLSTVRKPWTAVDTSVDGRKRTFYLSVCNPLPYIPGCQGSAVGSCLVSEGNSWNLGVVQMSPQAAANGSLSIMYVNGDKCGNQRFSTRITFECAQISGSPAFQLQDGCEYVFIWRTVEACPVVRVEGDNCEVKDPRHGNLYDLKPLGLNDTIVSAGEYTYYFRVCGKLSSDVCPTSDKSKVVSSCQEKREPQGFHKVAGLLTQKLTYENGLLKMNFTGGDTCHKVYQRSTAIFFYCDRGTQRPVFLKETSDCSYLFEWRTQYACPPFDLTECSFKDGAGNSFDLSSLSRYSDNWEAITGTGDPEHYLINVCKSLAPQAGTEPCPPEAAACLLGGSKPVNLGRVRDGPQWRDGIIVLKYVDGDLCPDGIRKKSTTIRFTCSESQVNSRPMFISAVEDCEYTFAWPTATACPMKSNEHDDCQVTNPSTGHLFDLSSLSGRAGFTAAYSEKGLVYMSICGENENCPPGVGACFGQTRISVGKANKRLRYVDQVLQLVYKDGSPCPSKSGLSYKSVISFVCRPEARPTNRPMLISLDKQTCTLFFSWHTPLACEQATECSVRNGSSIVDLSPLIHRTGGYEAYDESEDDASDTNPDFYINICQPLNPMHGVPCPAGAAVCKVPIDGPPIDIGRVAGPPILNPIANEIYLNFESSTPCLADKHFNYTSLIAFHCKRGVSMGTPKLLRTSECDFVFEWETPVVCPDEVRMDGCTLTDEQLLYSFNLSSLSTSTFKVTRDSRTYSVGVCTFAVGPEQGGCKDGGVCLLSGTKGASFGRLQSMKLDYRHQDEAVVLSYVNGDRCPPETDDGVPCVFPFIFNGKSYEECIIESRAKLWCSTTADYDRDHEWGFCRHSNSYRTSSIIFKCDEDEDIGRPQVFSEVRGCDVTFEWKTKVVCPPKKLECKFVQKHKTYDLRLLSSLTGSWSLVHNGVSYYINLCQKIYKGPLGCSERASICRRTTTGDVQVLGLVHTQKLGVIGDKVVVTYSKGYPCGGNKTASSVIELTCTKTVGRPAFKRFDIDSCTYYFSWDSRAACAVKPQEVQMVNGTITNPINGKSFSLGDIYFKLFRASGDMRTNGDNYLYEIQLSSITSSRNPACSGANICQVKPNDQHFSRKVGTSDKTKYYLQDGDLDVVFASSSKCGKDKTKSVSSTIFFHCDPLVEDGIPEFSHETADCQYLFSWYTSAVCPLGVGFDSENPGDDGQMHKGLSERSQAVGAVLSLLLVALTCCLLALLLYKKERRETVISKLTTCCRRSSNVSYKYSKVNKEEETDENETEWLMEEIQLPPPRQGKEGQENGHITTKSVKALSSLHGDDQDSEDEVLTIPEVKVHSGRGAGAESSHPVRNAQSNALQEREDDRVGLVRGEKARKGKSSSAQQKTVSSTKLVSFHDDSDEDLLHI

[4] = Serum pharmacokinetic analysis of rIgG1 (anti-IgG2a) antibody conjugates; type: in vivo, mice; conditions: intravenous 10 μg/mouse, compared to Compound I-7
Method: A pharmacokinetic analysis of the rIgG1 (anti-IgG2a) antibody conjugates described in the previous example was performed in mice. In particular, […] mice were intravenously administered each rIgG1 antibody conjugate at 10 μg/mouse (5 mice per group). Blood was collected at 0.5, 1, 2, 6, and 24 hours and serum rIgG1 was analyzed using an ELISA kit (Abcam) according to the manufacturer's instructions. Samples were run across 3 different plates with unconjugated rIgG1 controls (UNLB-anti-IgG2a rIgG1) included on all 3 plates. FIGS. 8A-8C show the serum levels of anti-IgG2a conjugated to Compound 1-7 (dar8) and (dar4) (FIG. 8A), anti-IgG2a conjugated to Compound I-10 and anti-IgG2a conjugated to Compound I-11 (FIG. 8B), and anti-IgG2a conjugated to Compound I-9 and anti-IgG2a conjugated to Compound I-12 (FIG. 8C) over time.

Jurkat cells [5] = experiment: Uptake of IgG2a-Alexa488 into Jurkat cells; type: cell-based; conditions: anti-IgG2a conjugates, 1 hour and 24 hours
Method: The anti-IgG2a conjugates were bound to IgG2a-Alexa488, as follows: equal molar ratios of anti-IgG2a and IgG2a-Alexa488 were added in tissue culture media for 30 minutes at room temperature. The resulting anti-IgG2a:IgG2a antibody-Alexa488 compositions were added to Jurkat cells (100 k cells/50 ul per well, n=2), and Alexa488 fluorescence levels were measured (via Alexa488 measurement) at 1 hour and 24 hours by flow cytometry. As the fluorescently labelled target (IgG2a antibody) accumulates in cells, the fluorescence presents a way to measure total intracellular uptake by cells over time.

[6] = omalizumab conjugates of Table 15B, Jurkat cells, 1 hour (FIG. 18-21)
[7] = omalizumab conjugates of Table 15A, Jurkat cells, 1 hour (FIG. 15-17)
[8] = omalizumab conjugates of Table 19, Jurkat cells (FIG. 23)

Structure (SMILES): O=C(CCOCCn1cc(CCO[C@H]2O[C@H](CCP(=O)(O)O)[C@@H](O)[C@H](O)[C@@H]2O)nn1)Oc1c(F)c(F)c(F)c(F)c1F [605 (I-11)]
- binding affinity to M6PR, rank among the conjugates tested (CI-M6PR [1]): lowest binding affinity

Structure (SMILES): CO[C@H]1C[C@H](c2cn(CCOCCOCCOCCOCCOCCOCCC(=O)Oc3c(F)c(F)c(F)c(F)c3F)nn2)[C@@H](O)[C@H](O)[C@@H]1O[C@H]1O[C@H](CCP(=O)(O)O)[C@@H](O)[C@H](O)[C@@H]1O [Compound 660]
- cellular uptake activity of Alexa488 labeled-target IgE (Jurkat cells [2]; [6]): potent and comparable activity

Structure (SMILES): O=C(NCCCCc1cn(CCOCCOCCOCCOCCC(=O)Oc2c(F)c(F)c(F)c(F)c2F)nn1)Nc1ccc(O[C@H]2C[C@H](CCP(=O)(O)O)[C@@H](O)[C@H](O)[C@@H]2O)cc1 [Compound 665]
- cellular uptake activity of Alexa488 labeled-target IgE (Jurkat cells [2]; [7]): low activity

Structure (SMILES): O=C(CCOCCOCCOCCN(CCOCCOCCOCCn1cc(CCO[C@H]2O[C@H](CCP(=O)(O)O)[C@@H](O)[C@H](O)[C@@H]2O)nn1)CCOCCOCCOCCn1cc(CCO[C@H]2O[C@H](CCP(=O)(O)O)[C@@H](O)[C@H](O)[C@@H]2O)nn1)Oc1c(F)c(F)c(F)c(F)c1F [Compound 716]
- cellular uptake activity of Alexa488 labeled-target IgE (Jurkat cells [2]; [7]): inferior uptake

Structure (SMILES): CO[C@H]1O[C@H](COCCCCCc2cn(CCOCCOCCOCCOCCC(=O)Oc3c(F)c(F)c(F)c(F)c3F)nn2)[C@@H](O)[C@H](O)[C@@H]1O[C@H]1O[C@H](CCP(=O)(O)O)[C@@H](O)[C@H](O)[C@@H]1O [Compound 659]
- cellular uptake activity of Alexa488 labeled-target IgE (Jurkat cells [2]; [6]): potent and comparable activity

Structure (SMILES): O=C(NCCCCc1cn(CCOCCOCCOCCOCCC(=O)Oc2c(F)c(F)cc(F)c2F)nn1)Nc1ccc(O[C@H]2O[C@H](CCP(=O)(O)O)[C@@H](O)[C@H](O)[C@@H]2O)cc1 [Compound 558]
- cellular uptake activity of Alexa488 labeled-target IgE (Jurkat cells [2]; [7]): active in this assay, although less active

Structure (SMILES): O=C(NCCCCc1cn(-c2cccnc2)nn1)Nc1ccc(O[C@H]2O[C@H](CCP(=O)(O)O)[C@@H](O)[C@H](O)[C@@H]2O)cc1 [Compound P2]
- IC50 (M6PR (Domains 1-9)): 100 to 500 nM

Structure (SMILES): O=C(NCCCCc1cn(-c2cccnc2)nn1)Nc1ccc(S[C@@H]2O[C@H](CCP(=O)(O)O)[C@@H](O)[C@H](O)[C@@H]2O)cc1 [Compound P3]
- IC50 (M6PR (Domains 1-9)): 100 to 500 nM

Structure (SMILES): O=C(NCCCCc1cn(-c2cccnc2)nn1)Nc1ccc(S[C@H]2O[C@H](CCP(=O)(O)O)[C@@H](O)[C@H](O)[C@@H]2O)cc1 [Compound P4]
- IC50 (M6PR (Domains 1-9)): 100 to 500 nM

Structure (SMILES): O=C(CCOCCOCCOCCOCCn1cc(CCCCNC(=S)Nc2ccc(O[C@H]3O[C@H](CCP(=O)(O)O)[C@@H](O)[C@H](O)[C@@H]3O)cc2)nn1)Oc1c(F)c(F)c(F)c(F)c1F [520 (I-7)]
- binding affinity to M6PR, rank among the conjugates tested (CI-M6PR [1]): highest

Structure (SMILES): O=C(NCCCCc1cn(CCOCCOCCOCCOCCC(=O)Oc2c(F)c(F)c(F)c(F)c2F)nn1)Nc1ccc(S[C@H]2O[C@H](CCP(=O)(O)O)[C@@H](O)[C@H](O)[C@@H]2O)cc1 [Compound 552]
- cellular uptake activity of Alexa488 labeled-target IgE (Jurkat cells [2]; [6]): comparable activity; also recorded: more activity when at m=6 loading versus m=4 loading
- cellular uptake activity of Alexa488 labeled-target IgE (Jurkat cells [2]; [8]): comparable by less activity

Structure (SMILES): O=C(NCCCCc1cn(CCOCCOCCOCCOCCC(=O)Oc2c(F)c(F)c(F)c(F)c2F)nn1)Nc1ccc(S[C@@H]2O[C@H](CCP(=O)(O)O)[C@@H](O)[C@H](O)[C@@H]2O)cc1 [Compound 570]
- cellular uptake activity of Alexa488 labeled-target IgE (Jurkat cells [2]; [6]): superior activity
- cellular uptake activity of Alexa488 labeled-target IgE (Jurkat cells [2]; [8]): superior activity
- Kd (CI-M6PR [3]): superior Kd

Structure (SMILES): O=C(NCCCCc1cn(-c2cccnc2)nn1)Nc1ccc(O[C@@H]2O[C@H](CCP(=O)(O)O)[C@@H](O)[C@H](O)[C@@H]2O)cc1 [Compound P1]
- IC50 (M6PR (Domains 1-9)): 100 to 500 nM

Structure (SMILES): O=C(CCOCCn1cc(CCO[C@H]2O[C@H](CCP(=O)(O)O)[C@@H](O)[C@H](O)[C@@H]2O)nn1)Oc1c(F)c(F)c(F)c(F)c1F [Compound I-11]
- half-life in mice [4]: longer half-life
- binding affinity to M6PR compared to Compound I-7 (CI-M6PR [1]; conjugates of ligand linkers): weaker binding affinity
- intracellular uptake of IgG2a-Alexa488 (Jurkat cells [5]): sufficiently robust uptake
